Where a name gives a salt, the structure may show the parent alone. Read-outs that look alike come from different tables or passages of the source.
Tests used:
[1] = Hydrochlorothiazide bio-study: urinary excretion, urine output and side effects after IR or GRD; assay type: in vivo, human; details: same dose, drug released in gastric fluid (GRD)
Description: Two formulations for hydrochlorthiazide (an immediate release formulation (IR) and a gastric retention device (GRD) containing sustained release formulations (SR)) were administered in the bio-study (bioavailability study). A commercial tablet containing 50 mg of HCTZ was used as an IR control, and spray-coated beads equivalent to 50 mg of HCTZ were formulated for slow drug release (SR) and included in the GRF. Bioavailability and pharmacodynamics of HCTZ from a GRD were compared to those from an IR.
Monitoring concentrations of hydrochlorthiazide in the urine of healthy adult volunteers allowed comparison of the relative bioavailability of hydrochlorthiazide from the GRD formulation and from a conventional tablet. […] An IR was given once and the GRD was repeated twice to test the reproducibility of the new dosage form. A 50-mg dose was chosen for the study because it was in the range of the recommended dose from the PDR (Physician's Desk References) and it produced concentrations high enough to make HPLC analysis efficient. Six subjects participated in the study, 4 healthy males and 2 healthy females. They were not allowed any food or drink containing caffeine, nor alcohol or other medications. Smokers and vegetarians were not included. […] The volume of urine collected was measured in order to calculate total amount of drug recovered.

[2] = Procedure: All data fittings were performed on data from immediate-release formulations using WinNonlin software, version 3.2 (Pharsight Corporation, Mountain View, Calif.).
[3] = prolonged release wax matrix formulation; cited from earlier work
[4] = cited from earlier work
[5] = fitted from available plasma data (PDR), used in simulations
Excerpt: These parameters are volume of distribution divided by fraction of dose absorbed (V/F), absorption rate constant (ka), and elimination rate constant (kel).

[6] = commercial mixed pellets, cited from earlier work
[7] = 60 mg immediate-release riboflavin, fed subjects; cited from earlier work
[8] = disintegrating tablets from pellets coated with cellulose acetate phthalate; cited from earlier work
[9] = fitted to literature data of immediate-release formulation

NS(=O)(=O)c1cc2c(cc1Cl)NCNS2(=O)=O [Hydrochlorothiazide]
Adverse reactions reported [1]: No adverse reactions were reported

CNC(=C[N+](=O)[O-])NCCSCc1ccc(CN(C)C)o1 [Ranitidine hydrochloride]
absorption rate constant ([2]; human, in vivo): 0.641
kel ([2]; human, in vivo): 0.239 h⁻¹

Cc1cc2nc3c(=O)[nH]c(=O)nc-3n(C[C@H](O)[C@H](O)[C@H](O)COP(=O)(O)O)c2cc1C [Riboflavin-5-phosphate]
absorption rate constant [2, 9]: 3.67
kel [2, 9]: 0.32 h⁻¹

CC1(C)S[C@@H]2[C@H](NC(=O)[C@H](N)c3ccc(O)cc3)C(=O)N2[C@H]1C(=O)O [amoxicillin]
Amoxicillin released in 6 hours [3]: 19%

CC(=O)Oc1ccc(C(c2ccc(OC(C)=O)cc2)c2ccccn2)cc1 [bisacodyl]
Liberation of bisacodyl in 0.1 M HCl ([4]; coating of mixture of Eudagrit L and Eudgrit NE): approximately 4 % w/w
Liberation of bisacodyl in phosphate buffer within 45 min ([4]; pH 6.8, polymer 1): 100%
Liberation of bisacodyl in phosphate buffer within 45 min ([4]; pH 6.8, polymer 2): 40%
Liberation of bisacodyl in phosphate buffer ([4]; pH 7.2, polymer 2): 100%
Bisacodyl liberated in acidic media after tableting ([4]; pellets coated with 25% w/w of one of the new polymers): 4-5 % w/w

C[C@H](N)Cc1ccccc1 [d-Amphetamine]
ka [5]: 0.744 h⁻¹
Observed Cmax ([6]; Fasted, 30 mg): 40.2 ng/mL
Observed Cmax ([6]; Fed, 20 mg): 25.3 ng/mL

Cc1cc2nc3c(=O)[nH]c(=O)nc-3n(C[C@H](O)[C@H](O)[C@H](O)CO)c2cc1C [riboflavin]
Bioavailability [7]: 36.4%

Cc1cc(NS(=O)(=O)c2ccc(N)cc2)no1 [sulfametoxazole]
Drug liberated within 2 hours in artificial gastric fluid [8]: more than 10%
